Earlier results in US4312857A, “Novel derivatives of beta-endorphin, intermediates therefor and compositions and methods employing said derivatives” (The United States of America as represented by the Veterans, priority 1977, dated 1982).

Key:
rat = details: injected directly into the brain of the rat
[1] = test system: partially purified brain opiate receptor sites

Q: What does the source list for “H-Tyr-Gly-Gly-Phe-Met-OH [methionine enkephalin]”?
A: analgesic effect (rat): weak analgesic agent of short duration; binding to partially purified brain opiate receptor sites [1]: binds stereo-specifically
